Structures can show the parent of a compound that is named as a salt.
biological target: human KV7.2/KV7.3 (Homo sapiens (Human), UniProt O43525+O43526); test: Potassium flux assay (IPG-2 AM dye); type: cell-based; details: TREX HEK 293 or HEK 293 cells expressing human KV7.2/KV7.3; arithmetic mean values
Outline: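 EC50 from 16 concentrations (2-fold dilutions, top 30 μM), scaled between DMSO baseline and a known KV7.x modulator maximum. Signal is IPG-2 AM fluorescence (ex 530/em 558 nm) after 10 mM KCl challenge buffer addition, following 20 min room-temperature compound exposure of HEK 293 or TREX HEK 293 cells stably expressing human KV7.2/KV7.3.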

SMILES | EC50
O[C@H]1CC[C@H](Oc2ccc3c(Nc4ccc(Cl)nc4)nccc3c2)CC1 [Example 350, (1r,4r)-4-((1-((6-chloropyridin-3-yl)amino)isoquinolin-6-yl)oxy)cyclohexan-1-ol] | 1 to 10 µM
Clc1ccc(Nc2nccc3cc(OCC4(OCc5ccncc5)CC4)ccc23)cn1 [Example 362, N-(6-chloropyridin-3-yl)-6-((1-(pyridin-4-ylmethoxy)cyclopropyl)methoxy)isoquinolin-1-amine] | 1 to 10 µM
COc1ncc(Nc2nccc3cc(OCC4(C)COC4)ccc23)cn1 [Example 370, N-(2-methoxypyrimidin-5-yl)-6-((3-methyloxetan-3-yl)methoxy)isoquinolin-1-amine] | < 1 µM
COc1ncc(Nc2nccc3cc(OCc4cnn(C)c4)ccc23)cn1 [Example 371, N-(2-methoxypyrimidin-5-yl)-6-((1-methyl-1H-pyrazol-4-yl)methoxy)isoquinolin-1-amine] | < 1 µM
COc1ncc(Nc2nccc3cc(OCC4CC4)ccc23)cn1 [Example 372, 6-(cyclopropylmethoxy)-N-(2-methoxypyrimidin-5-yl)isoquinolin-1-amine] | 1 to 10 µM
COc1ncc(Nc2nccc3cc(OCC4(C#N)CC4)ccc23)cn1 [Example 373, 1-(((1-((2-methoxypyrimidin-5-yl)amino)isoquinolin-6-yl)oxy)methyl)cyclopropane-1-carbonitrile] | < 1 µM
Cn1cc(COc2ccc3c(Nc4cnc(Cl)c(O)c4)nccc3c2)cn1 [Example 374, 2-chloro-5-((6-((1-methyl-1H-pyrazol-4-yl)methoxy)isoquinolin-1-yl)amino)pyridin-3-ol] | < 1 µM
O=C(N[C@@H]1CCC[C@H](Oc2ccc3c(Nc4cnc(Cl)nc4)nccc3c2)C1)C(F)(F)F [Example 375, N-((1R,3S)-3-((1-((2-chloropyrimidin-5-yl)amino)isoquinolin-6-yl)oxy)cyclohexyl)-2,2,2-trifluoroacetamide] | 1 to 10 µM
CC(=O)N[C@@H]1CCC[C@H](Oc2ccc3c(Nc4cnc(Cl)nc4)nccc3c2)C1 [Example 376, N-((1R,3S)-3-((1-((2-chloropyrimidin-5-yl)amino)isoquinolin-6-yl)oxy)cyclohexyl)acetamide] | < 1 µM
O=C(N[C@H]1CCC[C@@H](Oc2ccc3c(Nc4cnc(Cl)nc4)nccc3c2)C1)C(F)(F)F [Example 377, N-((1 S,3R)-3-((1-((2-chloropyrimidin-5-yl)amino)isoquinolin-6-yl)oxy)cyclohexyl)-2,2,2-trifluoroacetamide] | < 1 µM
CC(=O)N[C@H]1CCC[C@@H](Oc2ccc3c(Nc4cnc(Cl)nc4)nccc3c2)C1 [Example 378, N-((1 S,3R)-3-((1-((2-chloropyrimidin-5-yl)amino)isoquinolin-6-yl)oxy)cyclohexyl)acetamide] | < 1 µM
Clc1ccc(Nc2nccc3cc(OCc4cn[nH]c4C4CC4)ccc23)cn1 [Example 379, N-(6-chloropyridin-3-yl)-6-((5-cyclopropyl-1H-pyrazol-4-yl)methoxy)isoquinolin-1-amine] | < 1 µM
FC(F)Cn1cc(COc2ccc3c(Nc4ccc(Cl)nc4)nccc3c2)cn1 [Example 380, N-(6-chloropyridin-3-yl)-6-((1-(2,2-difluoroethyl)-1H-pyrazol-4-yl)methoxy)isoquinolin-1-amine] | < 1 µM
Clc1ncc(Nc2nccc3cc(OCc4cn[nH]c4)ccc23)cn1 [Example 381, 6-((1H-pyrazol-4-yl)methoxy)-N-(2-chloropyrimidin-5-yl)isoquinolin-1-amine] | < 1 µM
Clc1ncc(Nc2nccc3cc(OC[C@H]4COCCO4)ccc23)cn1 [Example 382, (R)-6-((1,4-dioxan-2-yl)methoxy)-N-(2-chloropyrimidin-5-yl)isoquinolin-1-amine] | < 1 µM
Clc1ncc(Nc2nccc3cc(OC[C@@H]4COCCO4)ccc23)cn1 [Example 383, (S)-6-((1,4-dioxan-2-yl)methoxy)-N-(2-chloropyrimidin-5-yl)isoquinolin-1-amine] | < 1 µM
[2H]C([2H])(Oc1ccc2c(Nc3cnc(Cl)nc3)nccc2c1)C1(F)CC1 [Example 384, N-(2-chloropyrimidin-5-yl)-6-((1-fluorocyclopropyl)methoxy-d2)isoquinolin-1-amine] | < 1 µM
CC(Oc1ccc2c(Nc3cnc(Cl)nc3)nccc2c1)C1(C#N)CC1 (stereo not shown) [Example 385, 1-(1-((1-((2-chloropyrimidin-5-yl)amino)isoquinolin-6-yl)oxy)ethyl)cyclopropane-1-carbonitrile] | < 1 µM
[2H]C([2H])(Oc1ccc2c(Nc3ccc(Cl)nc3)nccc2c1)c1cnn(C)c1 [Example 386, N-(6-chloropyridin-3-yl)-6-((1-methyl-1H-pyrazol-4-yl)methoxy-d2)isoquinolin-1-amine] | < 1 µM
Clc1ccc(Nc2nccc3cc(OCCc4ncccn4)ccc23)cn1 [Example 387, N-(6-chloropyridin-3-yl)-6-(2-(pyrimidin-2-yl)ethoxy)isoquinolin-1-amine] | 1 to 10 µM
COc1ncc(Nc2nccc3cc(OCc4cn[nH]c4C)ccc23)cn1 [Example 388, N-(2-methoxypyrimidin-5-yl)-6-((5-methyl-1H-pyrazol-4-yl)methoxy)isoquinolin-1-amine] | < 1 µM
Clc1ncc(Nc2nccc3cc(OCCCc4cn[nH]c4)ccc23)cn1 [Example 389, 6-(3-(1H-pyrazol-4-yl)propoxy)-N-(2-chloropyrimidin-5-yl)isoquinolin-1-amine] | < 1 µM
Clc1ncc(Nc2nccc3cc(OCCc4cn[nH]c4)ccc23)cn1 [Example 390, 6-(2-(1H-pyrazol-4-yl)ethoxy)-N-(2-chloropyrimidin-5-yl)isoquinolin-1-amine formate] | < 1 µM
Clc1ccc(Nc2nccc3cc(OCc4cc[nH]n4)ccc23)cn1 [Example 391, 6-((1H-pyrazol-3-yl)methoxy)-N-(6-chloropyridin-3-yl)isoquinolin-1-amine] | 1 to 10 µM
Cc1cc(COc2ccc3c(Nc4ccc(Cl)nc4)nccc3c2)n[nH]1 [Example 392, N-(6-chloropyridin-3-yl)-6-((5-methyl-1H-pyrazol-3-yl)methoxy)isoquinolin-1-amine] | 1 to 10 µM
Cc1n[nH]cc1COc1ccc2c(Nc3ccc(Cl)nc3)nccc2c1 [Example 393, N-(6-chloropyridin-3-yl)-6-((3-methyl-1H-pyrazol-4-yl)methoxy)isoquinolin-1-amine] | < 1 µM
OC1(COc2ccc3c(Nc4ccc(Cl)nc4)nccc3c2)COC1 [Example 394, 3-(((1-((6-chloropyridin-3-yl)amino)isoquinolin-6-yl)oxy)methyl)oxetan-3-ol] | 1 to 10 µM

Next, values leading:

EC50 | SMILES
< 1 µM | O[C@@H]1CCC[C@H](Oc2ccc3c(Nc4ccc(Cl)nc4)nccc3c2)C1 [Example 346, (1R,3S)-3-((1-((6-chloropyridin-3-yl)amino)isoquinolin-6-yl)oxy)cyclohexan-1-ol]
< 1 µM | O[C@H]1CCC[C@@H](Oc2ccc3c(Nc4ccc(Cl)nc4)nccc3c2)C1 [Example 347, (1 S,3R)-3-((1-((6-chloropyridin-3-yl)amino)isoquinolin-6-yl)oxy)cyclohexan-1-ol]
< 1 µM | N#CC1(COc2ccc3c(Nc4cnc(Cl)nc4)nccc3c2)CC12CC2 (stereo not shown) [Example 349, 1-(((1-((2-chloropyrimidin-5-yl)amino)isoquinolin-6-yl)oxy)methyl)spiro[2.2]pentane-1-carbonitrile]
< 1 µM | CC1(C)CC1(C#N)COc1ccc2c(Nc3cnc(Cl)nc3)nccc2c1 (stereo not shown) [Example 351, 1-(((1-((2-chloropyrimidin-5-yl)amino)isoquinolin-6-yl)oxy)methyl)-2,2-dimethylcyclopropane-1-carbonitrile]
< 1 µM | Cc1c(COc2ccc3c(Nc4cnc(Cl)nc4)nccc3c2)cnn1C [Example 352, N-(2-chloropyrimidin-5-yl)-6-((1,5-dimethyl-1H-pyrazol-4-yl)methoxy)isoquinolin-1-amine]
< 1 µM | Cc1ncc(Nc2nccc3cc(OCc4cnn(C)c4C)ccc23)cn1 [Example 353, 6-((1,5-dimethyl-1H-pyrazol-4-yl)methoxy)-N-(2-methylpyrimidin-5-yl)isoquinolin-1-amine]
< 1 µM | CC(F)(F)C1(COc2ccc3c(Nc4cnc(Cl)nc4)nccc3c2)COC1 [Example 355, N-(2-chloropyrimidin-5-yl)-6-((3-(1,1-difluoroethyl)oxetan-3-yl)methoxy)isoquinolin-1-amine]
< 1 µM | CC(C)(C)OC(=O)N[C@H]1CCC[C@@H](Oc2ccc3c(Nc4cnc(Cl)nc4)nccc3c2)C1 [Example 356, tert-butyl ((1S,3R)-3-((1-((2-chloropyrimidin-5-yl)amino)isoquinolin-6-yl)oxy)cyclohexyl)carbamate]
< 1 µM | O[C@H]1CCC[C@@H](Oc2ccc3c(Nc4cnc(Cl)nc4)nccc3c2)C1 [Example 359, (1 S,3R)-3-((1-((2-chloropyrimidin-5-yl)amino)isoquinolin-6-yl)oxy)cyclohexan-1-ol]
< 1 µM | NC(=O)C1(COc2ccc3c(Nc4cnc(Cl)nc4)nccc3c2)CC1 [Example 361, 1-(((1-((2-chloropyrimidin-5-yl)amino)isoquinolin-6-yl)oxy)methyl)cyclopropane-1-carboxamide]
< 1 µM | FC1(COc2ccc3c(Nc4ccc(Cl)nc4)nccc3c2)CCOC1 (stereo not shown) [Example 363, N-(6-chloropyridin-3-yl)-6-((3-fluorotetrahydrofuran-3-yl)methoxy)isoquinolin-1-amine]
< 1 µM | Clc1ccc(Nc2nccc3cc(OCc4cnoc4)ccc23)cn1 [Example 368, N-(6-chloropyridin-3-yl)-6-(isoxazol-4-ylmethoxy)isoquinolin-1-amine]
< 1 µM | N#CC1(COc2ccc3c(Nc4cnc(Cl)nc4)nccc3c2)CCC1 [Example 369, 1-(((1-((2-chloropyrimidin-5-yl)amino)isoquinolin-6-yl)oxy)methyl)cyclobutane-1-carbonitrile]

Reference: patent US20240101531A1, “PYRIDINAMINE DERIVATIVES AND THEIR USE AS POTASSIUM CHANNEL MODULATORS” (Xenon Pharmaceuticals Inc., priority 2022, published 2024)
